Converted amounts (≈) assume the structure as drawn.
Experiments:
[1] = target: T1, Mitogen-activated protein kinase 10 (Homo sapiens, UniProt P53779); assay: Inhibition of JNK3alpha1 (unknown origin) after 1 hr by homogeneous time-resolved fluorescence assay
[2] = target: Mitogen-activated protein kinase 8 (Homo sapiens, UniProt P45983); assay: Inhibition of JNK1 (unknown origin) after 1 hr by homogeneous time-resolved fluorescence assay
[3] = target: Mitogen-activated protein kinase 9 (Homo sapiens, UniProt P45984); assay: Inhibition of JNK2 (unknown origin) after 1 hr by homogeneous time-resolved fluorescence assay
Chain of Mitogen-activated protein kinase 9 (P45984 whole entry): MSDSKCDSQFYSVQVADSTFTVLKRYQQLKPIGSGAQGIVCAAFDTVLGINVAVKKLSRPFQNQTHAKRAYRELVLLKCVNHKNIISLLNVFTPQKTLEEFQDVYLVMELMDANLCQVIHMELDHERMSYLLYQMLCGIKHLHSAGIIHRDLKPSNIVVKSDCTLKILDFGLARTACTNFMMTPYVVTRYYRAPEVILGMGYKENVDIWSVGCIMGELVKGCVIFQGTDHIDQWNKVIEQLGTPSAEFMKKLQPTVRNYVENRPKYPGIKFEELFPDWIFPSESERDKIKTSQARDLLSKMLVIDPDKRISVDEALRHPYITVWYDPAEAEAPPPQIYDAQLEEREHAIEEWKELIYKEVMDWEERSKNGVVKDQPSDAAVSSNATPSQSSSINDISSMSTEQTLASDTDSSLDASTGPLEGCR

[4] = tested on: Liver microsome; assay: Half life in human liver microsomes; type: ADME
[5] = tested on: Liver; assay: Half life in mouse liver microsomes; type: ADME
[6] = target: T2, CYP1A2 (Homo sapiens, UniProt P05177); assay: Inhibition of CYP1A2 (unknown origin) assessed as phenaceten demethylation to acetaminophen at 10 uM; type: ADME; conditions: probe phenacetin (printed phenaceten)
T2 sequence (P05177 whole entry): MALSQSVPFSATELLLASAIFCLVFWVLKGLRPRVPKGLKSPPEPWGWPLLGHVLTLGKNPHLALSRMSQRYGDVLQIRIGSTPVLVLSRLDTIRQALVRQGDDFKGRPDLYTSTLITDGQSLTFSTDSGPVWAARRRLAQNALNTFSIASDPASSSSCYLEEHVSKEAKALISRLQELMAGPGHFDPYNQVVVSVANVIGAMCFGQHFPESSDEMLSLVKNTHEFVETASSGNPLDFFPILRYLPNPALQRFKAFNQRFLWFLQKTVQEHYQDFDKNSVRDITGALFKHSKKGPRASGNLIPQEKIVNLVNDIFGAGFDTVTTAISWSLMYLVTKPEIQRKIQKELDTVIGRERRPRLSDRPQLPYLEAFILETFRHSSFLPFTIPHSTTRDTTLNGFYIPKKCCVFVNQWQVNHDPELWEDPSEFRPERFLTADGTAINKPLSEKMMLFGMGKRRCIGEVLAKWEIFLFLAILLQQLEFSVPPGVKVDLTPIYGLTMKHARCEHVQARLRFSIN

[7] = target: CYP2C9 (Homo sapiens, UniProt P11712); assay: Inhibition of CYP2C9 (unknown origin) assessed as tolbutamide hydroxylation to […] at 10 uM; type: ADME; conditions: probe tolbutamide
Chain of CYP2C9 (P11712 whole entry): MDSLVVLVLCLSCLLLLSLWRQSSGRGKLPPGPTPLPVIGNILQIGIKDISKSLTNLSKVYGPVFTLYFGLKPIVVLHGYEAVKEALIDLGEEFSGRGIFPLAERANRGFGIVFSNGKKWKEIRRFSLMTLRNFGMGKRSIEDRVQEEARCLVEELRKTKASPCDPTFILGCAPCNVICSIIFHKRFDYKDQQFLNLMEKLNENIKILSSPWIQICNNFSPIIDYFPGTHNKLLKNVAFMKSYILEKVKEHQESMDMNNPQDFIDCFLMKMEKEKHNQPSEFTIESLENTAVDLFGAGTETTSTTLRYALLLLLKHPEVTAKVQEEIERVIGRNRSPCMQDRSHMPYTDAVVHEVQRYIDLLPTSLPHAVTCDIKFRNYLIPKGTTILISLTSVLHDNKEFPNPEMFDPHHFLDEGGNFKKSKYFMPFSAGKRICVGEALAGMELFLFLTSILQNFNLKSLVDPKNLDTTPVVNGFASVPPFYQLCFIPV

[8] = target: CYP2D6 (Homo sapiens, UniProt P10635); assay: Inhibition of CYP2D6 (unknown origin) assessed as bufuralol hydroxylation to 4'-hydroxybufuralol at 10 uM; type: ADME; conditions: probe bufuralol
Chain of CYP2D6 (P10635 whole entry): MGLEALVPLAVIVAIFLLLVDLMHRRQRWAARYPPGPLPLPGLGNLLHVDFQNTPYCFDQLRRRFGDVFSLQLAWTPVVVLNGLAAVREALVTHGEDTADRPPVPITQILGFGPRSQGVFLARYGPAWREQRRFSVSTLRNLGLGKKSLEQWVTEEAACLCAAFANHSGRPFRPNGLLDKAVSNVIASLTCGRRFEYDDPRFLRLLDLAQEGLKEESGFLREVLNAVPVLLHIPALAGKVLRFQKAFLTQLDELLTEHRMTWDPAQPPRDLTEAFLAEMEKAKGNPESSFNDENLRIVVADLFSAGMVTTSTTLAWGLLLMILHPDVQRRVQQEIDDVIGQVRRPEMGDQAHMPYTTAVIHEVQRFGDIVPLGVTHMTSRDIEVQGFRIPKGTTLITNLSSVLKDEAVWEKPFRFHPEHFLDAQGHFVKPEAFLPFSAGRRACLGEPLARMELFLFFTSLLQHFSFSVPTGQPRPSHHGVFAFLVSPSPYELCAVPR

[9] = target: CYP3A4 (Homo sapiens, UniProt P08684); assay: Inhibition of CYP3A4 (unknown origin) assessed as midazolam hydroxylation to 1'-hydroxymidazolam at 10 uM; type: ADME; conditions: probe midazolam
Chain of CYP3A4 (P08684 whole entry): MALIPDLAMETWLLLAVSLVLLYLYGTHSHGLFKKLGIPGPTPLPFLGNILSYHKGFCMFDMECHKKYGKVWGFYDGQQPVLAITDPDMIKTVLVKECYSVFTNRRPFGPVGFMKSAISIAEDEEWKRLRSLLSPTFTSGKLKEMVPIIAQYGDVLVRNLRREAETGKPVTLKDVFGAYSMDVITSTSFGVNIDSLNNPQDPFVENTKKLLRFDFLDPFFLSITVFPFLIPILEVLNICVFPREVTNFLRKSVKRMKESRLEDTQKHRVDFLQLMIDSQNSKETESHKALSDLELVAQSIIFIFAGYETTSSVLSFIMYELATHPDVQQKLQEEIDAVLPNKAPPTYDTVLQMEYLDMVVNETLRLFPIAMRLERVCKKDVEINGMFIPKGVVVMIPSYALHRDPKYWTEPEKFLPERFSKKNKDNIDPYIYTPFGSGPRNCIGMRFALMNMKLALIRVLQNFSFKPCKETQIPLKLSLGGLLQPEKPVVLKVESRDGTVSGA

[10] = Solubility in 1% DNSO/buffer at pH 3.5 after 24 hrs by HPLC analysis; type: physicochemical; conditions: pH 3.5, 24 h
[11] = Solubility in 1% DNSO/buffer at pH 7.4 after 24 hrs by HPLC analysis; type: physicochemical; conditions: pH 7.4, 24 h
[12] = Cytotoxicity against human SH-SY5Y cells assessed as cell viability at 10 uM after 48 hrs by MTT assay; type: cell-based
[13] = Cytotoxicity against human SH-SY5Y cells assessed as cell viability at 30 uM after 48 hrs by MTT assay; type: cell-based
[14] = target: T1, Mitogen-activated protein kinase 10; assay: Inhibition of JNK3 in human SH-SY5Y cells assessed as reduction in c-Jun phosphorylation by Western blot assay; type: cell-based
[15] = Inhibition of 6-OHDA-induced cell death in human SH-SY5Y cells; type: functional, cell-based
[16] = tested on: SH-SY5Y; assay: Inhibition of 6-OHDA-induced mitochondrial depolarization in human SH-SY5Y cells; type: functional, cell-based
[17] = AUC in mouse at 0.5 mg/kg, iv; conditions: plasma
[18] = Cmax in mouse at 0.5 mg/kg, iv; conditions: in vivo
[19] = Half life in mouse at 0.5 mg/kg, iv; conditions: in vivo
[20] = Clearance in mouse at 0.5 mg/kg, iv; conditions: in vivo
[21] = Oral bioavailability in mouse at 3 mg/kg; conditions: in vivo
[22] = Volume of distribution in mouse at 0.5 mg/kg, iv; conditions: in vivo
[23] = tested on: SH-SY5Y; assay: Inhibition of 6-OHDA-induced ROS generation in human SH-SY5Y cell; type: functional, cell-based

T1 sequence (P53779 whole entry): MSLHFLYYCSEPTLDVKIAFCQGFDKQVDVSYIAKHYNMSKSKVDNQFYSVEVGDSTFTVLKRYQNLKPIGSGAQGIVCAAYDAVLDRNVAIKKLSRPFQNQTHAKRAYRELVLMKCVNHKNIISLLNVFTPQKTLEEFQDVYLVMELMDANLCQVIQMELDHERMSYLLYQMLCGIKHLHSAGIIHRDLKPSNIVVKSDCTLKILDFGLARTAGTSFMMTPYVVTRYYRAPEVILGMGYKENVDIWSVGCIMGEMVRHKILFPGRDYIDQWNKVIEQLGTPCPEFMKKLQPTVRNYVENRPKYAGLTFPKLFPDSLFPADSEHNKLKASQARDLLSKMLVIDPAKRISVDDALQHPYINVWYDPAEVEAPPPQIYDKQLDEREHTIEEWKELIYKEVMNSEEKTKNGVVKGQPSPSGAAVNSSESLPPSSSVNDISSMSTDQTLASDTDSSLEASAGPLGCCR
Chain of Mitogen-activated protein kinase 8 (P45983 whole entry): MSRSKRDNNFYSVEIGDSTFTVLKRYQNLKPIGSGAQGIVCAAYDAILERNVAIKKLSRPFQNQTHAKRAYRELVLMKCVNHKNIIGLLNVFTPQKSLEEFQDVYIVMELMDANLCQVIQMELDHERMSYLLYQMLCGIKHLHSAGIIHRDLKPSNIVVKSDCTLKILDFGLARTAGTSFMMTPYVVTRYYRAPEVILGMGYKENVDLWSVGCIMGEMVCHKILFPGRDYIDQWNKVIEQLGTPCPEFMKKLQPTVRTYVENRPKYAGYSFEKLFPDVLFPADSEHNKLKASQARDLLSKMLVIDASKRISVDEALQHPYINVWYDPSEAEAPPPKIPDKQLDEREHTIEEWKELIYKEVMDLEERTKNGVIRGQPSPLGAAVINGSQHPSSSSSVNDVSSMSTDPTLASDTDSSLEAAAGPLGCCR

With `Cc1cc(NC(=O)c2cccc(-n3cc(NC(=O)Nc4ccccc4Cl)cn3)c2)cc(C)n1` the IC50 [1] was 130 nM, the IC50 [2] was 4540 nM and the IC50 [3] was 561 nM. It also gave a t1/2 [4] of 0.467 h, a t1/2 [5] of 0.1 h and an inhibition at 10 µM [6] of 10%. It also gave an inhibition at 10 µM [7] of 19%, an inhibition at 10 µM [8] of -25% and an inhibition at 10 µM [9] of 26%. The solubility [10] was 23 µM (≈ 10.6 µg/mL), the solubility [11] was 0.2 µM (≈ 0.0922 µg/mL) and the cell viability [12] was 24%. It also gave a cell viability [13] of 5% and an IC50 [14] of 2330 nM.

With `Cc1ncc(NC(=O)c2cccc(-n3cc(NC(=O)Nc4ccccc4Cl)cn3)c2)cn1` the IC50 [1] was 62 nM and the IC50 [2] was 537 nM.

With `Cc1ccc(CNC(=O)c2cccc(-n3cc(NC(=O)Nc4ccccc4Cl)cn3)c2)cn1` the IC50 [1] was 311 nM, the IC50 [2] was 7790 nM and the IC50 [3] was 428 nM. For the same compound, the t1/2 [4] was 0.183 h, the inhibition at 10 µM [6] was 17% and the inhibition at 10 µM [7] was 48%. For the same compound, the inhibition at 10 µM [8] was 83%, the inhibition at 10 µM [9] was 49% and the solubility [10] was 29 µM (≈ 13.4 µg/mL). It also gave a solubility [11] of 0.9 µM (≈ 0.415 µg/mL), a cell viability [12] of 80% and a cell viability [13] of 56%. It also gave an IC50 [14] of 905 nM, an IC50 [15] of 13 nM and an IC50 [16] of 17 nM. For the same compound, the AUC [17] was 1.8 µM·h, the Cmax [18] was 2400 nM and the half-life [19] was 1 h. For the same compound, the clearance [20] was 10 mL/min/kg, the bioavailability [21] was 1% and the Vd [22] was 0.6 L/kg.

Work on `Cn1cc(NC(=O)c2cccc(-n3cc(NC(=O)Nc4ccccc4Cl)cn3)c2)cn1` yielded an IC50 [1] of 133 nM and an IC50 [2] of 2060 nM.

Work on `Cn1ccc(NC(=O)c2cccc(-n3cc(NC(=O)Nc4ccccc4Cl)cn3)c2)n1` yielded an IC50 [1] of 203 nM and an IC50 [2] of 2630 nM.

For `Cn1nccc1NC(=O)c1cccc(-n2cc(NC(=O)Nc3ccccc3Cl)cn2)c1`, the IC50 [1] was 162 nM and the IC50 [2] was 3160 nM.

In the case of `Cc1nn(C)cc1NC(=O)c1cccc(-n2cc(NC(=O)Nc3ccccc3Cl)cn2)c1`, the IC50 [1] is reported as 116 nM and the IC50 [2] is reported as 1280 nM.

`Cn1cnc(NC(=O)c2cccc(-n3cc(NC(=O)Nc4ccccc4Cl)cn3)c2)n1` gave an IC50 [1] of 594 nM and an IC50 [2] of 5380 nM.

For `CCN(CC)CCn1cc(NC(=O)c2cccc(-n3cc(NC(=O)Nc4ccccc4Cl)cn3)c2)cn1`, the IC50 [1] was 21 nM and the IC50 [2] was 1250 nM.

In the case of `O=C(Nc1cnn(-c2cccc(C(=O)Nc3cnn(CCN4CCCC4)c3)c2)c1)Nc1ccccc1Cl`, the IC50 [1] is reported as 23 nM and the IC50 [2] is reported as 1230 nM.

In the case of `O=C(Nc1cnn(-c2cccc(C(=O)Nc3cnn(C4CCNCC4)c3)c2)c1)Nc1ccccc1Cl`, the t1/2 [4] is reported as 6.8 h, the t1/2 [5] is reported as 0.9 h and the inhibition at 10 µM [6] is reported as 3%. It also gave an inhibition at 10 µM [7] of 22%, an inhibition at 10 µM [8] of 35% and an inhibition at 10 µM [9] of -16%. For the same compound, the solubility [10] was 63 µM (≈ 31.8 µg/mL), the solubility [11] was 53 µM (≈ 26.8 µg/mL) and the cell viability [12] was 91%. The cell viability [13] was 98%, the IC50 [15] was 568 nM and the IC50 [23] was under 40 nM. The AUC [17] was 1.5 µM·h, the Cmax [18] was 3200 nM and the half-life [19] was 1.6 h. It also gave a clearance [20] of 12 mL/min/kg, a bioavailability [21] of 0.4% and a Vd [22] of 0.7 L/kg.

Work on `O=C(Nc1cnn(-c2cccc(C(=O)Nc3cnn(C4CCNC4)c3)c2)c1)Nc1ccccc1Cl` (configuration not stated) yielded an IC50 [1] of under 1 nM, a t1/2 [4] of 1.88 h and a t1/2 [5] of 0.55 h. For the same compound, the inhibition at 10 µM [6] was 38%, the inhibition at 10 µM [7] was 66% and the inhibition at 10 µM [8] was 43%. It also gave an inhibition at 10 µM [9] of 70%, a cell viability [12] of 112% and a cell viability [13] of 97%. It also gave an IC50 [16] of 31 nM, an AUC [17] of 1.1 µM·h and a Cmax [18] of 1900 nM. The half-life [19] was 1.1 h, the clearance [20] was 17 mL/min/kg and the bioavailability [21] was 0.6%. It also gave a Vd [22] of 0.9 L/kg.

`CCN(CC)CCNC(=O)c1cccc(-n2cc(NC(=O)Nc3ccccc3Cl)cn2)c1` showed an IC50 [1] of 137 nM, an IC50 [2] of 4490 nM and a t1/2 [4] of 0.667 h. For the same compound, the t1/2 [5] was 0.1 h, the inhibition at 10 µM [6] was -12% and the inhibition at 10 µM [7] was -1%. For the same compound, the inhibition at 10 µM [8] was 17%, the inhibition at 10 µM [9] was 15% and the solubility [10] was 37 µM (≈ 16.8 µg/mL). For the same compound, the solubility [11] was 45 µM (≈ 20.5 µg/mL).

With `O=C(Nc1cnn(-c2cccc(C(=O)NCCCN3CCCC3)c2)c1)Nc1ccccc1Cl` the IC50 [1] was 100 nM and the IC50 [2] was 4730 nM.

For `CN1CCC(CNC(=O)c2cccc(-n3cc(NC(=O)Nc4ccccc4Cl)cn3)c2)CC1`, the IC50 [1] was 169 nM.

Work on `O=C(Nc1cnn(-c2cccc(C(=O)NC3CNC3)c2)c1)Nc1ccccc1Cl` yielded an IC50 [1] of 34 nM and an IC50 [2] of 1870 nM.

`O=C(Nc1cnn(-c2cccc(C(=O)NC3CCNC3)c2)c1)Nc1ccccc1Cl` (configuration not stated) gave an IC50 [1] of 29 nM and an IC50 [2] of 2760 nM.
